Experimental data as given in PMC10648349, “Aromatic Diboronic Acids as Effective KPC/AmpC Inhibitors” (Molecules, 2023).
Values after ≈ are worked out from the molar mass of the structure shown.

Experiments:
[1] = test system: C. albicans ATCC 90028; assay: antifungal activity (disc-diffusion, MIC, MFC); assay type: cell-based; details: Candida albicans, ATCC90028; fluconazole by Etest
Description: (§1) Direct antimicrobial activity against Gram-negative and Gram-positive bacterial strains, as well as against yeast, was examined as previously described by the disc-diffusion test, the MIC determination assay, the MBC (for bacteria), and the MFC (for yeasts) determination tests. All the above-mentioned tests were performed according to EUCAST [71, 72] and CLSI [73, 74, 75, 76, 77] recommendations. The following reference agents were used: nitrofurantoin (for Gram-negative rods), linezolid (for Gram-positive bacteria), and fluconazole (in the case of fungi). The new aromatic diboronic acids were dissolved in DMSO (Sigma, St. Louis, MO, USA). In the disc-diffusion test, the concentration of new agents was 0.4 mg per disc.

[2] = test system: C. tropicalis IBA 171; assay: antifungal activity (disc-diffusion, MIC, MFC); assay type: cell-based; details: Candida tropicalis, IBA171; fluconazole by Etest
Description: as §1

[3] = test system: C. tropicalis ATCC 750; assay: antifungal activity (disc-diffusion, MIC, MFC); assay type: cell-based; details: Candida tropicalis, ATCC750; fluconazole by Etest
Description: as §1

[4] = test system: S. cerevisiae ATCC 9763; assay: antifungal activity (disc-diffusion, MIC, MFC); assay type: cell-based; details: Saccharomyces cerevisiae, ATCC9763; fluconazole by Etest
Description: as §1

[5] = test system: C. krusei ATCC 6258; assay: antifungal activity (disc-diffusion, MIC, MFC); assay type: cell-based, Candida krusei; details: Pichia kudriavzevii, ATCC6258; fluconazole by Etest
Description: as §1

[6] = test system: B. subtilis ATCC 6633; assay: direct antimicrobial activity (disc-diffusion); assay type: cell-based; details: Bacillus subtilis, ATCC6633; 0.4 mg per disc, 9 mm disc (linezolid 0.03 mg, 6 mm disc); - no zone; read-out: Diameter of inhibition zone
Description: as §1

[7] = MTT-based viability assay; assay type: cell-based; details: human, MRC-5 human fibroblasts, 72 h, read-out: Viability of MRC-5 cells (% of viable cells ± SD)
Description: MRC-5 human fibroblasts (ECACC) were cultured in MEME, Minimum Essential Medium Eagle (Merck) supplemented with 10% fetal bovine serum (Merck), 2 mM l-glutamine, antibiotics (100 U/mL penicillin, 100 μg/mL streptomycin, Merck) and 1% non-essential amino acids (Merck). Cells were grown in 75 cm^2 cell culture flasks (Sarstedt) in a humidified atmosphere of CO2/air (5/95%) at 37 °C. MTT-based viability assay was conducted as described previously. Optical densities were measured at 570 nm using a BioTek microplate reader. All measurements were carried out in three replicates, and the results were expressed as a percent of viable cells versus control cells.

[8] = test system: S. aureus ATCC 6538P; assay: direct antimicrobial activity (disc-diffusion, MIC, MBC); assay type: cell-based; details: Staphylococcus aureus, ATCC6538P; for zone of inhibition at 0.4 mg/disc: 0.4 mg per disc, 9 mm disc (linezolid 0.03 mg, 6 mm disc), - no zone, read-out: Diameter of inhibition zone
Description: as §1

[9] = test system: E. faecium ATCC 6057; assay: as above; assay type: cell-based; details: Enterococcus faecium, ATCC6057
Description: as §1

[10] = test system: S. aureus ATCC 43300 MRSA; assay: as above; assay type: cell-based; details: Staphylococcus aureus; for zone of inhibition at 0.4 mg/disc: 0.4 mg per disc, 9 mm disc (linezolid 0.03 mg, 6 mm disc), - no zone, read-out: Diameter of inhibition zone
Description: as §1

[11] = test system: S. epidermidis ATCC 12228; assay: as above; assay type: cell-based; details: Staphylococcus epidermidis, ATCC12228
Description: as §1

[12] = test system: E. faecalis ATCC 29212; assay: as above; assay type: cell-based; details: Enterococcus faecalis, ATCC29212
Description: as §1

[13] = test system: C. guilliermondii IBA 155; assay: antifungal activity (disc-diffusion, MIC, MFC); assay type: cell-based, Candida guilliermondii; details: Meyerozyma guilliermondii, IBA155; fluconazole by Etest
Description: as §1

[14] = test system: C. parapsilosis ATCC 22019; assay: antifungal activity (disc-diffusion, MIC, MFC); assay type: cell-based, Candida parapsilosis; details: Lodderomyces parapsilosis, ATCC22019; fluconazole by Etest
Description: as §1

[15] = test system: P. aeruginosa MUW 700 cAmpC-positive; assay: combination disc test CDT-AmpC; assay type: cell-based; details: Pseudomonas aeruginosa; agent 0.3 mg per disc; read-out: Diameter of inhibition zone, CAZ-30 disc with agent
[16] = test system: K. pneumoniae ATCC 700603 ESBL-positive; assay: combination disc test CDT-ESBL; assay type: cell-based; details: Klebsiella pneumoniae, ATCC700603; agent 0.3 mg per disc; read-out: Diameter of inhibition zone, CAZ-30 disc with agent
[17] = test system: E. coli 77 CMY-2-positive; assay: combination disc test CDT-AmpC; assay type: cell-based; details: Escherichia coli; agent 0.3 mg per disc; read-out: Diameter of inhibition zone, CAZ-30 disc with agent
[18] = test system: K. pneumoniae 83 KPC-3(+), CTX-M-3(+); assay: MIC of tested agent alone, microdilution; assay type: cell-based; details: Klebsiella pneumoniae; read-out: MIC of agent alone
Description: (§2) To examine the ability of tested agents to inhibit various carbapenemases and AmpC-enzymes, their synergy with antibiotics against β-lactamase-producing strains was assessed by checkerboard microdilution assay, with slight modification. Checkerboards were prepared in microtiter plates, with seven two-fold dilutions of β-lactams (1–64 mg/L) in the rows and three two-fold dilutions of tested agents and PBA (4–16 mg/L) in the columns. Tested agents’ concentrations were limited to the concentrations at which the newest commercially available BLIs (vaborbactam, relebactam, and avibactam) are used in susceptibility testing. Plates were inoculated and incubated as in the MIC microdilution assay. Parallel, MICs of tested agents and PBA alone were determined by the microdilution assay. Following the incubation, antibiotic MICs in the presence of each agent’s concentration were determined. Moreover, for the first well without growth found in each checkerboard row and column along the growth/non-growth interface, the fractional inhibitory concentration index (FICI) was calculated using the formula below:FICI = [(MIC of antibiotic in combination)/(MIC of antibiotic alone)] + [(MIC of the tested agent in combination)/(MIC of tested agent alone)].

[19] = test system: K. pneumoniae ATCC BAA-1705 KPC-2(+); assay: MIC of tested agent alone, microdilution; assay type: cell-based; details: Klebsiella pneumoniae, ATCCBAA1705; read-out: MIC of agent alone
Description: as §2

[20] = test system: E. coli 76 KPC-2(+); assay: MIC of tested agent alone, microdilution; assay type: cell-based; details: Escherichia coli; read-out: MIC of agent alone
Description: as §2

[21] = test system: P. aeruginosa MUW 700 AmpC(+); assay: MIC of tested agent alone, microdilution; assay type: cell-based; details: Pseudomonas aeruginosa; read-out: MIC of agent alone
Description: as §2

[22] = test system: K. pneumoniae 81 KPC-3(+); assay: MIC of tested agent alone, microdilution; assay type: cell-based; details: Klebsiella pneumoniae; read-out: MIC of agent alone
Description: as §2

[23] = test system: E. coli 77 CMY-2(+); assay: MIC of tested agent alone, microdilution; assay type: cell-based; details: Escherichia coli; read-out: MIC of agent alone
Description: as §2

[24] = test system: K. pneumoniae ATCC BAA 1705 KPC-2-positive; assay: combination disc test CDT-KPC; assay type: cell-based; details: Klebsiella pneumoniae, BAA1705; agent 0.3 mg per disc; read-out: Diameter of inhibition zone, MEM-10 disc with agent
[25] = 0.4 mg per disc, 9 mm disc (linezolid 0.03 mg, 6 mm disc), - no zone, read-out: Diameter of inhibition zone

Compound | MIC [1] | MIC [2] | MIC [3] | MIC [4] | MIC [5] | zone of inhibition at 0.4 mg/disc [6] | viability at 72 h, 12.5 mg/L [7] | viability at 72 h, 25 mg/L [7] | viability at 72 h, 50 mg/L [7] | MIC [8] | zone of inhibition at 0.4 mg/disc [8] | MIC [9] | MIC [10] | zone of inhibition at 0.4 mg/disc [10] | MIC [11] | MIC [12] | MIC [13] | MIC [14] | also measured
OB(O)c1cc(C(F)(F)F)c(B(O)O)cc1C(F)(F)F [1h] | > 400 µg/mL | > 400 µg/mL | > 400 µg/mL | > 400 µg/mL | > 400 µg/mL | 12 mm | 101 ± 4.3% | 104 ± 5% | 98.8 ± 3.2% | 400 µg/mL (≈ 1330 µM) | 13 mm | 400 µg/mL (≈ 1330 µM) | 400 µg/mL (≈ 1330 µM) | 14 mm | 200 µg/mL (≈ 663 µM) | 400 µg/mL (≈ 1330 µM) | > 400 µg/mL | > 400 µg/mL | –
COc1c(B(O)O)cccc1B(O)O [2g] | > 400 µg/mL | > 400 µg/mL | > 400 µg/mL | > 400 µg/mL | > 400 µg/mL | – | 111 ± 9.7% | 117 ± 3.7% | 103 ± 5.1% | > 400 µg/mL | – | 400 µg/mL (≈ 2040 µM) | > 400 µg/mL | – | > 400 µg/mL | > 400 µg/mL | > 400 µg/mL | > 400 µg/mL | zone of inhibition at 300 µg/disc [15]: 19 mm; zone of inhibition at 300 µg/disc [16]: 13 mm; zone of inhibition at 300 µg/disc [17]: 20 mm; MIC [18]: > 400 µg/mL; MIC [19]: > 400 µg/mL; MIC [20]: > 400 µg/mL; MIC [21]: > 400 µg/mL; MIC [22]: > 400 µg/mL; MIC [23]: > 400 µg/mL; zone of inhibition at 300 µg/disc [24]: 6 mm
CC(=O)NC[C@H]1CN(c2ccc(N3CCOCC3)c(F)c2)C(=O)O1 [LIN, linezolid, reference compound] | – | – | – | – | – | 30 mm | – | – | – | 1 µg/mL (≈ 2.96 µM) | 25 mm | 2 µg/mL (≈ 5.93 µM) | 2 µg/mL (≈ 5.93 µM) | 25 mm | 1 µg/mL (≈ 2.96 µM) | 2 µg/mL (≈ 5.93 µM) | – | – | MBC [8]: > 128 µg/mL; MBC [9]: > 128 µg/mL; zone of inhibition at 0.4 mg/disc [9, 25]: 14 mm; MBC [10]: > 128 µg/mL; MBC [11]: > 128 µg/mL; zone of inhibition at 0.4 mg/disc [11, 25]: 26 mm; MBC [12]: > 128 µg/mL; zone of inhibition at 0.4 mg/disc [12, 25]: 15 mm
